Consider three molecules from ChEMBL document CHEMBL5380795, “Design, Synthesis, and Bioactivity Investigation of Cyclic Lipopeptide Antibiotics Containing Eight to Nine Amino Acids” (J Med Chem, 2023).

Series [1] has as its system Acinetobacter baumannii. In words: Antibacterial activity against carbapenem resistant Acinetobacter baumannii clinical isolate 19-8 assessed as inhibition of bacterial growth incubated for 18 to 24 hrs by broth microdilution method. In kind it is functional. The settings on record: time 18-24 hrs.
Series [2] has as its system Acinetobacter baumannii. The series is described as follows: Antibacterial activity against oxacillinase-27 producing Acinetobacter baumannii NCTC 13304 assessed as inhibition of bacterial growth incubated for 18 to 24 hrs by broth microdilution method. The settings on record: time 18-24 hrs. In kind it is functional.
The subject of series [3] is Staphylococcus aureus. In words: Antibacterial activity against Staphylococcus aureus ATCC 29213 assessed as inhibition of bacterial growth incubated for 18 to 24 hrs by broth microdilution method. The note with it: time 18-24 hrs. In kind it is functional.
Series [4] concerns Escherichia coli. The series is described as follows: Antibacterial activity against Escherichia coli clinical isolate 19-2 assessed as inhibition of bacterial growth incubated for 18 to 24 hrs by broth microdilution method. The note with it: time 18-24 hrs. In kind it is functional.
The test system of series [5] is Escherichia coli. In words: Antibacterial activity against KPC producing Escherichia coli ATCC BAA-2340 assessed as inhibition of bacterial growth incubated for 18 to 24 hrs by broth microdilution method. The note with it: time 18-24 hrs. The class given is functional.
The test system of series [6] is Klebsiella pneumoniae. The series is described as follows: Antibacterial activity against KPC producing Klebsiella pneumoniae ATCC BAA-1705 assessed as inhibition of bacterial growth incubated for 18 to 24 hrs by broth microdilution method. In kind it is functional. The note with it: time 18-24 hrs.
The subject of series [7] is Escherichia coli. In words: Antibacterial activity against Escherichia coli NCTC 13353 assessed as inhibition of bacterial growth incubated for 18 to 24 hrs by broth microdilution method. In kind it is functional. The note with it: time 18-24 hrs.
The test system of series [8] is Escherichia coli. The series is described as follows: Antibacterial activity against Escherichia coli. The class given is functional.
Series [9] concerns Klebsiella pneumoniae. In words: Antibacterial activity against carbapenem resistant Klebsiella pneumoniae clinical isolate 19-15 assessed as inhibition of bacterial growth incubated for 18 to 24 hrs by broth microdilution method. In kind it is functional. The settings on record: time 18-24 hrs.
In series [10] the test system is Pseudomonas aeruginosa. In words: Antibacterial activity against Pseudomonas aeruginosa clinical isolate 19-1 assessed as inhibition of bacterial growth incubated for 18 to 24 hrs by broth microdilution method. The note with it: time 18-24 hrs. The class given is functional.
Series [11] relates to Acinetobacter baumannii. The series is described as follows: Antibacterial activity against Acinetobacter baumannii. The class given is functional.
Series [12] deals with Staphylococcus epidermidis. In words: Antibacterial activity against methicillin resistant Staphylococcus epidermidis clinical isolate 19-6 assessed as inhibition of bacterial growth incubated for 18 to 24 hrs by broth microdilution method. In kind it is functional. The note with it: time 18-24 hrs.
The subject of series [13] is Escherichia coli. The series is described as follows: Antibacterial activity against Escherichia coli ATCC BAA-2523 assessed as inhibition of bacterial growth incubated for 18 to 24 hrs by broth microdilution method. In kind it is functional. The settings on record: time 18-24 hrs.
The test system of series [14] is Pseudomonas aeruginosa. In words: Antibacterial activity against carbapenem resistant Pseudomonas aeruginosa clinical isolate 19-3 assessed as inhibition of bacterial growth incubated for 18 to 24 hrs by broth microdilution method. The class given is functional. The note with it: time 18-24 hrs.
Series [15] relates to Pseudomonas aeruginosa. In words: Antibacterial activity against Pseudomonas aeruginosa. The class given is functional.
The subject of series [16] is Klebsiella pneumoniae. In words: Antibacterial activity against Klebsiella pneumoniae. In kind it is functional.
Series [17] concerns Pseudomonas aeruginosa. In words: Antibacterial activity against carbapenem resistant Pseudomonas aeruginosa clinical isolate 17-1 assessed as inhibition of bacterial growth incubated for 18 to 24 hrs by broth microdilution method. The class given is functional. The settings on record: time 18-24 hrs.
Series [18] concerns Staphylococcus epidermidis. The series is described as follows: Antibacterial activity against Staphylococcus epidermidis. In kind it is functional.
The test system of series [19] is Pseudomonas aeruginosa. In words: Antibacterial activity against Pseudomonas aeruginosa ATCC 27853 assessed as inhibition of bacterial growth incubated for 18 to 24 hrs by broth microdilution method. The settings on record: time 18-24 hrs. In kind it is functional.
Series [20] in a line: Cytotoxicity against human HK-2 cells assessed as inhibition of cell growth incubated for 72 hrs by CCK-8 assay. The class given is toxicity, cell-based.
Series [21] relates to Staphylococcus epidermidis. In words: Antibacterial activity against methicillin resistant Staphylococcus epidermidis clinical isolate 19-5 assessed as inhibition of bacterial growth incubated for 18 to 24 hrs by broth microdilution method. The class given is functional. The settings on record: time 18-24 hrs.
The test system of series [22] is Staphylococcus aureus. In words: Antibacterial activity against methicillin resistant Staphylococcus aureus ATCC 33591 assessed as inhibition of bacterial growth incubated for 18 to 24 hrs by broth microdilution method. The settings on record: time 18-24 hrs. In kind it is functional.
A short description of series [23]: Selectivity index, ratio of IC50 for cytotoxicity against human HK-2 cells to MIC for antibacterial activity against Escherichia coli ATCC BAA-2523. The class given is toxicity, cell-based.
The test system of another series is Candida albicans. The series is described as follows: Antifungal activity against Candida albicans. The class given is functional.
Series [24] concerns Staphylococcus aureus. In words: Antibacterial activity against Staphylococcus aureus. In kind it is functional.
For series [25], the system named is Klebsiella pneumoniae. In words: Antibacterial activity against carbapenem resistant Klebsiella pneumoniae clinical isolate 19-17 assessed as inhibition of bacterial growth incubated for 18 to 24 hrs by broth microdilution method. The settings on record: time 18-24 hrs. In kind it is functional.
The test system of series [26] is Escherichia coli. In words: Antibacterial activity against Escherichia coli ATCC 25922 assessed as inhibition of bacterial growth incubated for 18 to 24 hrs by broth microdilution method. The class given is functional. The note with it: time 18-24 hrs.
Another series concerns Cell membrane. The series is described as follows: Induction of outer membrane permeabilization in Escherichia coli ATCC 25922 assessed as increase in fluorescence at 1 to 16 ug/ml measured after 3 mins by NPN-dye based assay. In kind it is subcellular. The note with it: dose 1-16 µg/ml.
Series [27] concerns Pseudomonas aeruginosa. The series is described as follows: Antibacterial activity against Pseudomonas aeruginosa FADDI-PA060 incubated for 18 hrs by broth microdilution method. The class given is functional.
Series [28] concerns Pseudomonas aeruginosa. In words: Antibacterial activity against Pseudomonas aeruginosa FADDI-PA025 incubated for 18 hrs by broth microdilution method. The class given is functional.
For series [29], the system named is Pseudomonas aeruginosa. The series is described as follows: Antibacterial activity against Pseudomonas aeruginosa FADDI-PA090 incubated for 18 hrs by broth microdilution method. The class given is functional.
Series [30] has as its system Pseudomonas aeruginosa. In words: Antibacterial activity against Pseudomonas aeruginosa FADDI-PA070 incubated for 18 hrs by broth microdilution method. The class given is functional.
The subject of series [31] is Pseudomonas aeruginosa. The series is described as follows: Antibacterial activity against Pseudomonas aeruginosa ATCC 27853 incubated for 18 hrs by broth microdilution method. In kind it is functional.

Values after ≈ are worked out from the molar mass of the structure shown. Active and inactive are the calls of the source. No cut-off for these calls is given here. Bridge positions count the residues as written; N and C are the ends. Square brackets hold non-standard residues; d marks the D form. Peptide text beside a SMILES is read from it. * marks the point of attachment. Decanoyl = CCCCCCCCCC(=O)*; dDab = NCC[C@@H](N)C(=O)O; Dab = NCC[C@H](N)C(=O)O

Regarding `CCCCCCC[C@@H](O)CC(=O)N[C@H](CCN)C(=O)N[C@H]1CCNC(=O)[C@H](CC(C)C)NC(=O)[C@H](CCN)NC(=O)[C@H](CCN)NC(=O)[C@H](Cc2ccccc2)NC(=O)[C@@H](CC(C)C)NC(=O)[C@H](CCN)NC1=O`, the MIC in the series on Acinetobacter baumannii [1] turned out to be 4 µg/mL (≈ 3.83 µM); in the series with Acinetobacter baumannii [2], 8 µg/mL (≈ 7.66 µM); in the series on Staphylococcus aureus [3], 32 µg/mL (≈ 30.6 µM); with Escherichia coli [4] it was 16 µg/mL (≈ 15.3 µM); in the series with Escherichia coli [5] it was 8 µg/mL (≈ 7.66 µM); in the series with Klebsiella pneumoniae [6], 8 µg/mL (≈ 7.66 µM). The MIC turned out to be 16 µg/mL (≈ 15.3 µM) with Escherichia coli [7]; 0.1 µg/mL (≈ 0.0958 µM) in the series with Escherichia coli [8]; 16 µg/mL (≈ 15.3 µM) in the series with Klebsiella pneumoniae [9]; 4 µg/mL (≈ 3.83 µM) in the series on Pseudomonas aeruginosa [10]; 4 µg/mL (≈ 3.83 µM) in the series with Acinetobacter baumannii [11]; 8 µg/mL (≈ 7.66 µM) in series [12]. Also, the MIC came out at 8 µg/mL (≈ 7.66 µM) in the series with Escherichia coli [13]; 4 µg/mL (≈ 3.83 µM) with Pseudomonas aeruginosa [14]; 0.4 µg/mL (≈ 0.383 µM) against Pseudomonas aeruginosa [15]; 0.78 µg/mL (≈ 0.747 µM) against Klebsiella pneumoniae [16]; 2 µg/mL (≈ 1.92 µM) in the series with Pseudomonas aeruginosa [17]; 0.6 µg/mL (≈ 0.575 µM) in series [18]. Besides, the minimal inhibitory concentration (MIC) in the series on Pseudomonas aeruginosa [19] amounted to 2 µg/mL (≈ 1.92 µM); in [21] it was 2 µg/mL (≈ 1.92 µM); with Staphylococcus aureus [22], 32 µg/mL (≈ 30.6 µM); against Candida albicans it was 4.7 µg/mL (≈ 4.5 µM); against Staphylococcus aureus [24], 3.1 µg/mL (≈ 2.97 µM); with Klebsiella pneumoniae [25], 16 µg/mL (≈ 15.3 µM). In [20], the IC50 at 72 h amounted to 16.1 µg/mL (≈ 15.4 µM). The selectivity ratio in [23] stood at 2.

In the case of `C[C@@H](O)[C@H]1C(=O)N2C(C(=O)O)=C(S[C@@H]3CN[C@H](C(=O)N(C)C)C3)[C@H](C)[C@H]12` [MEROPENEM], the MIC was 64 µg/mL (≈ 167 µM) in the series with Acinetobacter baumannii [2]; 0.125 µg/mL (≈ 0.326 µM) in the series on Staphylococcus aureus [3]; at most 0.06 µg/mL with Escherichia coli [4]; 4 µg/mL (≈ 10.4 µM) with Escherichia coli [5]; 0.06 µg/mL (≈ 0.156 µM) in the series on Escherichia coli [26]; below 0.06 µg/mL in the series with Escherichia coli [7]. Besides, the MIC in the series with Klebsiella pneumoniae [9] worked out at 64 µg/mL (≈ 167 µM); with Pseudomonas aeruginosa [10] it was 0.5 µg/mL (≈ 1.3 µM); in series [12], 2 µg/mL (≈ 5.22 µM); in the series on Escherichia coli [13], 0.25 µg/mL (≈ 0.652 µM); in the series with Pseudomonas aeruginosa [17], 32 µg/mL (≈ 83.4 µM); with Pseudomonas aeruginosa [19], 1 µg/mL (≈ 2.61 µM). The results for the MIC (in [21]; in the series on Klebsiella pneumoniae [25]) were 2 µg/mL (≈ 5.22 µM) and above 64 µg/mL, respectively. Further, in the series with Cell membrane, the outcome was inactive.

For the molecule `CCCCCCCCCC(=O)N[C@H](CCN)C(=O)N[C@H]1CCNC(=O)[C@H]([C@@H](C)O)NC(=O)[C@H](CCN)NC(=O)[C@H](CCN)NC(=O)[C@H](CC(C)C)NC(=O)[C@@H](Cc2ccccc2)NC(=O)[C@H](CCN)NC1=O` (Decanoyl-[dDab][Dab][Dab][dF]L[Dab][Dab]T; lactam 2-C), the MIC in the series on Pseudomonas aeruginosa [27], in the series with Pseudomonas aeruginosa [28], against Pseudomonas aeruginosa [29], against Pseudomonas aeruginosa [30] and with Pseudomonas aeruginosa [31] was 0.5 µg/mL (≈ 0.492 µM) in each case.
